Reference: US20130123494A1, “COMPLEX COMPOUND AND OPTICAL RECORDING MEDIUM CONTAINING SAME” (KH NEOCHEM CO., LTD., priority 2010, published 2013)

Tests used:
Type in all cases: physicochemical
[1] = Test of storage stability in solution; settings: 13 mg in 1 mL TFP, brown bottle, 25° C., 3 days; 1250-fold diluted for measurement
Protocol: Each of 13 mg of Complex Compounds (2) to (5), (7), (9) to (11), (13) to (21), (24), (26), (28), (30), (31), and (33) was dissolved in 1 mL of TFP, which was filtered with a filter made of TEFLON (registered trademark) (manufactured by Whatman, having a pore diameter of 0.20 μm), and solutions of Complex Compounds (2) to (5), (7), (9) to (11), (13) to (21), (24), (26), (28), (30), (31), and (33) were respectively obtained. Each of the obtained solutions was transferred to a brown bottle with a lid and stored at 25° C. for 3 days. Before and after the storage stability test, using a spectrophotometer, 1250-fold diluted solutions of Complex Compounds (2) to (5), (7), (9) to (11), (13) to (21), (24), (26), (28), (30), (31), and (33), respectively, were measured for their ultraviolet-visible absorption spectra. […] Here, the absorption maximum wavelength after the storage stability test is the absorption maximum wavelength in the absorption spectrum after the storage stability test.

[2] = Water resistance test of thin films; settings: for I^d/I^d0 (absorbance ratio at absorption maximum after/before water resistance test) / Δλmax (d) (change in absorption maximum wavelength): thin film immersed in water at 75° C. for 30 minutes; for Water resistance of thin film (in words): thin film in water at 75° C. for 30 minutes
Protocol: Similarly to the film-forming test, thin films of Complex Compounds (2), (3), (13), (19), and (20) were respectively obtained. Ultraviolet-visible absorption spectra of the thin films were measured using a spectrophotometer before and after the water resistance test in which the thin films were immersed in water at 75° C. for 30 minutes. […] Here, the absorption maximum wavelength after the water resistance test denotes the absorption maximum wavelength in the absorption spectrum after the water resistance test. […] Here, the water resistance test is a test under severe conditions, and a thin film having the ratio (I^d/I^d0) of 0.5 or greater has favorable water resistance.

[3] = Lightfastness test of thin films; settings: thin film on glass plate, UV fluorescent lamps 15 W/m^2, 45° C., 10 hours
Excerpt: Thin films of Complex Compounds (2) to (5), (7), (9) to (11), (13) to (21), (24), (26), (28), (30), (31), and (33) were respectively obtained similarly to the film-forming test except that a glass plate (manufactured by Taiyu Kizai Co., Ltd.; 2 cm×2 cm; thickness: 2 mm) was used as the substrates instead of the plate made of polycarbonate resin. Using a dewpanel light control weather meter DPWL-5R, manufactured by Suga Test Instruments Co., Ltd., which was equipped with ultraviolet fluorescent lamps (SUGA-FS40, manufactured by Suga Test Instruments Co., Ltd., having a peak wavelength of 313 nm and an illuminance distribution of 282 nm to 373 nm), light was irradiated on the thin films with an amount of light of 15 W/m^2 at 45° C. for 10 hours. Ultraviolet-visible absorption spectra of the thin film before and after the lightfastness test were measured using a spectrophotometer.
Here, the absorption maximum wavelength after lightfastness test denotes an absorption maximum wavelength in the absorption spectrum after the lightfastness test.

[4] = Moisture- and heat-resistances test of thin films; settings: thin film, 80° C., relative humidity 80%, 100 hours
Protocol: Similarly to the film-forming test, thin films of Complex Compounds (2) to (5), (7), (9) to (11), (13) to (21), (24), (26), (28), (30), (31), and (33) were respectively obtained. Using a constant temperature and humidity chamber, KHWII-40HP, manufactured by Satake Chemical Equipment Mfg Ltd., the thin films were exposed in the atmosphere having a temperature of 80° C. and a relative humidity of 80% for 100 hours. Ultraviolet-visible absorption spectra of the thin films before and after the moisture- and heat-resistances test were measured using a spectrophotometer. […] Here, the absorption maximum wavelength after the moisture- and heat-resistances test denotes the absorption maximum wavelength in an absorption spectrum after the moisture- and heat-resistances test.

| Compound | I^c/I^c0 (absorbance ratio at absorption maximum after/before storage stability test) [1] | Δλmax(c) (change in absorption maximum wavelength) [1] [nm] | I^d/I^d0 (absorbance ratio at absorption maximum after/before water resistance test) [2] | Δλmax (d) (change in absorption maximum wavelength) [2] [nm] | Water resistance of thin film (in words) [2] | I^a/I^a0 (absorbance ratio at absorption maximum after/before lightfastness test) [3] | I^b/I^b0 (absorbance ratio at absorption maximum after/before moisture- and heat-resistances test) [4] | Δλmax(b) (change in absorption maximum wavelength) [4] [nm] |
| --- | --- | --- | --- | --- | --- | --- | --- | --- |
| Cc1c(/C=N/[N-]c2nnnn2-c2ccccc2)c([O-])n(CC(C)C)c(=O)c1C#N.Cc1c(/C=N/[N-]c2nnnn2-c2ccccc2)c([O-])n(CC(C)C)c(=O)c1C#N.Cc1c(/C=N/[N-]c2nnnn2-c2ccccc2)c([O-])n(CC(C)C)c(=O)c1C#N.Cc1c(/C=N/[N-]c2nnnn2-c2ccccc2)c([O-])n(CC(C)C)c(=O)c1C#N.[Co+3].[Co+3].c1ccc(-[n+]2ccc(-c3cc[n+](-c4ccccc4)cc3)cc2)cc1 [Complex Compound (13)] | 0.99 | 0 | 0.59 | 0.5 | superior water resistance | 0.87 | 0.99 | 0 |
| Cc1c(/C=N/[N-]c2nnnn2-c2ccccc2)c([O-])n(CC(C)C)c(=O)c1C#N.Cc1c(/C=N/[N-]c2nnnn2-c2ccccc2)c([O-])n(CC(C)C)c(=O)c1C#N.Cc1c(/C=N/[N-]c2nnnn2-c2ccccc2)c([O-])n(CC(C)C)c(=O)c1C#N.Cc1c(/C=N/[N-]c2nnnn2-c2ccccc2)c([O-])n(CC(C)C)c(=O)c1C#N.Fc1ccc(-[n+]2ccc(-c3cc[n+](-c4ccc(F)cc4)cc3)cc2)cc1.[Co+3].[Co+3] [Complex Compound (20)] | 1.00 | 0.5 | 0.59 | 0.5 | superior water resistance | 0.86 | 1.00 | 0.5 |
| Cc1c(/C=N/[N-]c2nnnn2-c2ccccc2)c([O-])n(CC(C)C)c(=O)c1C#N.Cc1c(/C=N/[N-]c2nnnn2-c2ccccc2)c([O-])n(CC(C)C)c(=O)c1C#N.Cc1c(/C=N/[N-]c2nnnn2-c2ccccc2)c([O-])n(CC(C)C)c(=O)c1C#N.Cc1c(/C=N/[N-]c2nnnn2-c2ccccc2)c([O-])n(CC(C)C)c(=O)c1C#N.FC(F)(F)c1cccc(-[n+]2ccc(-c3cc[n+](-c4cccc(C(F)(F)F)c4)cc3)cc2)c1.[Co+3].[Co+3] [Complex Compound (19)] | 0.99 | 0 | 0.76 | 0 | superior water resistance | 0.85 | 0.99 | 0 |
